Test results published in patent US11124553B2, “TDP-43 mitochondrial localization inhibitor for the treatment of neurogenerative disease” (Case Western Reserve University, priority 2016, dated 2021).
Like-named read-outs stand apart in the source and are kept apart here. Ends that are not written are not given here.

Columns and labels:
[1] = 1.5 mg/kg/day s.c. infusion for 6 weeks; data not shown
[2] = continuous subcutaneous infusion
Protocol: Mice surgery/procedures were performed according to the NIH guidelines and were approved by the Institutional Animal Care and Use Committee (IACUC) at Case Western Reserve University. C57BL/6 non-transgenic wild type mice (NTG mice), Prnp-TARDBP mice (TDP-43 WT Tg mice) and Prnp-TARDBP*A315T mice (TDP-43 A315T Tg mice) were purchased from the Jackson Laboratory (Bar Harbor, Me.). Mice were infused subcutaneously with mini-osmotic pumps (Alzet Model 2004, Cupertino, Calif.; flow rate of 0.25 μl/hour). One day before implantation, mini-osmotic pumps were filled with 200 μl PBS containing cPM or PM1 peptides (0.5 mg/kg/Day) followed by pump incubation in PBS at 37 overnight according to the manufacturer's instructions. For surgery, male mice were anesthetized with avertin. A small incision was made at the back of mouse and mini-osmotic pump were implanted subcutaneously. After treatment, mice were deeply anesthetized with avertin and transcardially perfused with cold PBS and spinal cord and brain tissues were collected followed by fractionation, western blot or immunostaining.

cells = conditions: data not shown

Sequence | reaching the central nervous system [1] | detection in mitochondrial compartments [2] | reaching the central nervous system [2] | toxic effect on cells (cells)
YGRKKRRQRRRAQFPGACGL [PM1] | reached the central nervous system | detected in all mitochondrial compartments | reached the central nervous system | 
YGRKKRRQRRRSKGFGFVRF [PM3] |  |  |  | mild toxic effect
